16 compounds from patent publication US10633375B2, “Oxopicolinamide derivative, preparation method therefor and pharmaceutical use thereof” (Jiangsu Hengrui Medicine Co., Ltd., priority 2016, dated 2020) can be followed below.

The structures appear in SMILES notation.

Data set [1] concerns the target Coagulation Factor XIa protease (Homo sapiens (Human), UniProt P03951). Description: Inhibition of Factor XIa detected by absorption photometry. To be noted: absorbance at 405 nm, 10 minutes at 37° C. The format is biochemical. In a few lines:
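Read-out was absorbance at 405 nm after 10 min incubation at 37° C. Compound dilutions in 100% DMSO (200 to 0.002 μM) were combined with FXIa (2.5 μg/ml solution), then FXIa-specific chromogenic substrate (2 mM solution) was added; both are stock concentrations, not final.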

The subject of a further data set is human blood. The data set can be described thus: In vitro anticoagulant effect on human blood (APTT, CT2). To be noted: Table 2; concentration corresponding to 2 times the APTT of the blank control, human plasma. As for the experimental part: Test Example 2: Determination of In Vitro Anticoagulant Effect of the Compounds of the Present Invention on Human Blood
1. Experimental Materials
Plasma: Human blood was collected in blood collection tubes containing no anticoagulant, and then 3.8% sodium citrate (volume ratio 1:9) was added. The tubes were centrifuged at 2500 rpm for 10 minutes at room temperature, and then the plasma was collected and stored at −80° C.;
Reagents: APTT reagent (Activated partial thromboplastin time assay kit, SIEMENS, Art. No. B4218-1), calcium chloride solution;
Instrument: Coagulation instrument (SYSMEX, CA-500).
The divided plasma was melted at room temperature and mixed well. 10000 μM the test compound dissolved in 100% DMSO was diluted to 3000, 300, 200, 150, 75, 30, 10, 3, 0.3 μM with 100% DMSO, and the blank was 100% DMSO. The reagent, plasma, and compound were placed in corresponding positions in the coagulation instrument, and APTT detection of the compound was carried out.
Curve fitting was carried out by graphpad and CT2 was calculated, i.e., the concentration of the compound corresponding to 2 times the APTT of the blank control.

Data set [2] in a line: Pharmacokinetics assay in rats after intragastrical administration. The note with it: both sexes, Sprague-Dawley, rat, plasma, po, SD rats, intragastric, 2 mg/kg; for Vd/F: read-out: Apparent Distribution Volume Vz/F; for AUC: read-out: Area Under Curve AUC; for CL/F: read-out: Clearance CLz/F; for half-life: read-out: Half-Life T½ (converted); for MRT: read-out: Mean Residence Time MRT; for Cmax: read-out: Plasma Concentration Cmax. The class given is in vivo, Sprague-Dawley (SD) rats. The text has this:
Test Example 3. Pharmacokinetics Assay of the Compounds of the Present Invention
Rats were used as test animals. […] The pharmacokinetic behavior of the compounds of the present invention was studied and evaluated in rats.
56 healthy adult Sprague-Dawley (SD) rats, half male and half female, were purchased from SINO-BRITSH SIPPR/BK LAB. ANIMAL LTD., CO, with License No.: SCXK (Shanghai) 2008-0016.
2.3 Preparation of the Test Compounds
A certain amount of the test compound was weighed, and added with 5% by volume of DMSO, 5% by volume of Tween 80 and 90% normal saline to prepare a 0.2 mg/mL colorless, clear and transparent solution.
After an overnight fast, SD rats were intragastrically administered at a dose of 2.0 mg/kg and an administration volume of 10.0 mL/kg.
Blood (0.2 mL) was taken from the orbital sinus before administration and at 0.5, 1.0, 2.0, 4.0, 6.0, 8.0, 11.0 and 24.0 hours after administration. The samples were stored in heparin anticoagulation tubes, and centrifuged for 10 minutes at 3500 rpm at 4° C. to separate the blood plasma. The plasma samples were stored at −20° C. The rats were fed 2 hours after administration.
The content of the test compound in the plasma of rats after intragastric administration of different concentrations of the drug was determined: 25 μL of rat plasma at each time after administration was taken and added with 30 μL (100 ng/mL) of the internal standard solution of camptothecin and 200 μL of acetonitrile, shaken vertically for 5 minutes, and centrifuged for 10 minutes (4000 rpm). 3.0 μL of the supernatant was taken from the plasma samples for LC/MS/MS analysis.
4. Results of Pharmacokinetic Parameters
Pharmacokinetic parameters of the compounds of the present invention in rats are shown below.

Coagulation Factor XIa protease, sequence (P03951 388-625): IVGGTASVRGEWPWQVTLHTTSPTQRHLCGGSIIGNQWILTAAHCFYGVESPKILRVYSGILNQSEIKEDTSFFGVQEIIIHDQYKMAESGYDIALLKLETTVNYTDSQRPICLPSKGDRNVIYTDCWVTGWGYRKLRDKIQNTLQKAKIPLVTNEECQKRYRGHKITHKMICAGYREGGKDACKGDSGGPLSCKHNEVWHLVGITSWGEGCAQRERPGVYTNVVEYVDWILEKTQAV
Coagulation Factor XIa protease, sequence (P03951 19-387 partner): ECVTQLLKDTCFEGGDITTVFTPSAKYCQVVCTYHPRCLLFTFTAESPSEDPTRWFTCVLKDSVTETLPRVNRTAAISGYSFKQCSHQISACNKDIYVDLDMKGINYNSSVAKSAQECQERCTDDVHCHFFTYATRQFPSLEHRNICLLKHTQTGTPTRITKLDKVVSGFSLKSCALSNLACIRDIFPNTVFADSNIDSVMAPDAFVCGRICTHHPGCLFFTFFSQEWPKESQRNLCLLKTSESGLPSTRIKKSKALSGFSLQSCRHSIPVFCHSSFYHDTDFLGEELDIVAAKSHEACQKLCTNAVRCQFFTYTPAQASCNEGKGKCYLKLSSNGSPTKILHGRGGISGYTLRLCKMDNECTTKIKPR

A word on the IC50: it is the concentration that inhibits the measured activity by half. As a reminder, the AUC is the area under the concentration-time curve, a measure of exposure. What is called half-life is how long it takes for the measured level to halve. Usually MRT stands for the average time that molecules of a dose stay in the body. The compound `CCC(=O)c1ccc(Cl)cc1-c1cc(=O)n([C@@H](Cc2ccccc2)C(=O)Nc2ccc(C(=O)O)cc2)cc1OC` [Example 9, (S)-4-(2-(4-(5-chloro-2-propionylphenyl)-5-methoxy-2-oxopyridin-1(2H)-yl)-3-phenylpropanamido)benzoic acid] registered an IC50 in data set [1] of 14 nM. Besides, the “CT2, concentration doubling APTT” value in the data set with human blood is 2.4 µM. Besides, in data set [2], the Vd/F was found to be 31.5 ± 16.1 L/kg, the AUC was found to be 701 ± 615 ng·h/mL, the CL/F was 69.8 ± 35.2 mL/min/kg and the half-life is 5.55 ± 1.79 h. For the same compound, in data set [2], the MRT was determined as 6.78 ± 2.36 h and the Cmax worked out at 128 ± 50 ng/mL.
`COc1cn([C@@H](Cc2ccccc2)C(=O)Nc2ccc(C(N)=O)cc2)c(=O)cc1-c1cc(Cl)ccc1C(C)=O` [Example 11, (S)-4-(2-(4-(2-acetyl-5-chlorophenyl)-5-methoxy-2-oxopyridin-1(2H)-yl)-3-phenylpropanamido)benzamide] showed an IC50 in data set [1] of 13 nM. Further, the “CT2, concentration doubling APTT” value in the data set with human blood is 4.2 µM. Further, in data set [2], the Vd/F amounted to 40.2 ± 18.6 L/kg, the AUC was determined as 125 ± 50 ng·h/mL, the CL/F stood at 299 ± 111 mL/min/kg and the half-life is 1.53 ± 0.33 h. Moreover, in data set [2], the MRT was found to be 2.12 ± 0.17 h and the Cmax is 73.1 ± 32.3 ng/mL.
For `COc1cn([C@@H](Cc2ccccc2)C(=O)Nc2ccc(C(=O)O)cc2)c(=O)cc1-c1c(C(C)=O)ccc(Cl)c1F` [Example 31, (S)-4-(2-(4-(6-acetyl-3-chloro-2-fluorophenyl)-5-methoxy-2-oxopyridin-1(2H)-yl)-3-phenylpropanamido)benzoic acid], the “CT2, concentration doubling APTT” value in the data set with human blood amounted to 8.5 µM. Further, in data set [2], the Vd/F was found to be 21.6 ± 6.31 L/kg, the AUC worked out at 414 ± 77 ng·h/mL, the CL/F was determined as 82.5 ± 14.6 mL/min/kg and the half-life was 3.2 ± 1.41 h. For the same compound, in data set [2], the MRT amounted to 3.24 ± 0.93 h and the Cmax was found to be 234 ± 66 ng/mL.
`COc1cn(C(Cc2ccn(C3CC3)n2)C(=O)Nc2ccc(C(=O)O)cc2)c(=O)cc1-c1cc(Cl)ccc1C(C)=O` (stereo not shown) [Example 93, 4-(2-(4-(2-acetyl-5-chlorophenyl)-5-methoxy-2-oxopyridin-1(2H)-yl)-3-(1-cyclopropyl-1H-pyrazol-3-yl)propanamido)benzoic acid]: the concentration for half-maximal inhibition (IC50) in data set [1] is 42 nM. Besides, in the data set on human blood, the “CT2, concentration doubling APTT” value was found to be 2.9 µM.
For `COc1cn([C@@H](Cc2ccn(C3CC3)n2)C(=O)Nc2ccc(C(=O)O)cc2)c(=O)cc1-c1cc(Cl)ccc1C(C)=O` [Example 94, (S)-4-(2-(4-(2-acetyl-5-chlorophenyl)-5-methoxy-2-oxopyridin-1(2H)-yl)-3-(1-cyclopropyl-1H-pyrazol-3-yl)propanamido)benzoic acid] the same measures were 24 nM and 2.2 µM.
As for `COc1cn(C(Cc2ccn(C3CC3)n2)C(=O)Nc2ccc3nccnc3c2)c(=O)cc1-c1cc(Cl)ccc1C(C)=O` (stereo not shown) [Example 96, 2-(4-(2-acetyl-5-chlorophenyl)-5-methoxy-2-oxopyridin-1(2H)-yl)-3-(1-cyclopropyl-1H-pyrazol-3-yl)-N-(quinoxalin-6-yl)propanamide], it took 32 nM to reach half-maximal inhibition in data set [1] (IC50). The “CT2, concentration doubling APTT” value in the data set with human blood worked out at 6.7 µM.
The matching figures for `COc1cn(C(Cc2ccn(C3CC3)n2)C(=O)Nc2ccc3nn(C)cc3c2)c(=O)cc1-c1cc(Cl)ccc1C(C)=O` (stereo not drawn) [Example 97, 2-(4-(2-acetyl-5-chlorophenyl)-5-methoxy-2-oxopyridin-(2H)-yl)-3-(l-cyclopropyl-1H-pyrazol-3-yl)-N-(2-methyl-2H-indazol-5-yl)propanamide]: 36 nM and 5.4 µM.
The matching figures for `COc1cn(C(Cc2ccn(C3CC3)n2)C(=O)Nc2ccc3ncncc3c2)c(=O)cc1-c1cc(Cl)ccc1C(C)=O` (stereo not shown) [Example 98, 2-(4-(2-acetyl-5-chlorophenyl)-5-methoxy-2-oxopyridin-1(2H)-yl)-3-(1-cyclopropyl-1H-pyrazol-3-yl)-N-(quinazolin-6-yl)propanamide]: 40 nM and 7.6 µM.
The matching figures for `CCC(=O)c1ccc(Cl)cc1-c1cc(=O)n(C(Cc2ccn(C)n2)C(=O)Nc2ccc(C(=O)O)cc2)cc1OC` (stereo not shown) [Example 99, 4-(2-(4-(5-chloro-2-propionylphenyl)-5-methoxy-2-oxopyridin-1(2H)-yl)-3-(1-methyl-1H-pyrazol-3-yl)propanamido)benzoic acid]: 29 nM and 3.5 µM.
Regarding `COc1cn(C(Cc2ccn(C)n2)C(=O)Nc2ccc(C(=O)O)cc2)c(=O)cc1-c1cc(Cl)ccc1C(C)=O` (stereo not shown) [Example 100, 4-(2-(4-(2-acetyl-5-chlorophenyl)-5-methoxy-2-oxopyridin-1(2H)-yl)-3-(1-methyl-1H-pyrazol-3-yl)propanamido)benzoic acid], in data set [1], the IC50 came out at 35 nM. The “CT2, concentration doubling APTT” value in the data set with human blood is 3.3 µM.
`COc1cn([C@H](Cc2cnn(C)c2)C(=O)Nc2ccc(C(=O)O)cc2)c(=O)cc1-c1cc(Cl)ccc1C(C)=O` [Example 104, (R)-4-(2-(4-(2-acetyl-5-chlorophenyl)-5-methoxy-2-oxopyridin-1 (2H)-yl)-3-(1-methyl-1H-pyrazol-4-yl)propanamido)benzoic acid]: the IC50 in data set [1] came to 8150 nM. Further, the “CT2, concentration doubling APTT” value in the data set with human blood is >10000 µM.
For `COc1cn([C@@H](Cc2cnn(C)c2)C(=O)Nc2ccc(C(=O)O)cc2)c(=O)cc1-c1cc(Cl)ccc1C(C)=O` [Example 105, (S)-4-(2-(4-(2-acetyl-5-chlorophenyl)-5-methoxy-2-oxopyridin-1(2H)-yl)-3-(1-methyl-1H-pyrazol-4-yl)propanamido)benzoic acid] the same measures were 30 nM and 6.9 µM.
As for `COc1cn([C@H](CCOC(C)(C)C)C(=O)Nc2ccc(C(=O)O)cc2)c(=O)cc1-c1cc(Cl)ccc1C(C)=O` [Example 112, (R)-4-(2-(4-(2-acetyl-5-chlorophenyl)-5-methoxy-2-oxopyridin-1(2H)-yl)-4-(tert-butoxy)butanamido)benzoic acid], the IC50 in data set [1] was > 10000 nM. Besides, the “CT2, concentration doubling APTT” value with human blood was >10000 µM.
For the compound `COc1cn([C@H](CCOC2CCC2)C(=O)Nc2ccc(C(=O)O)cc2)c(=O)cc1-c1cc(Cl)ccc1C(C)=O` [Example 163, (R)-4-(2-(4-(2-acetyl-5-chlorophenyl)-5-methoxy-2-oxopyridin-1 (2H)-yl)-4-cyclobutoxybutanamido)benzoic acid], in data set [1], the IC50 was 9110 nM. Further, the “CT2, concentration doubling APTT” value with human blood is >10000 µM.
For `COc1cn([C@@H](CCOC2CCC2)C(=O)Nc2ccc(C(=O)O)cc2)c(=O)cc1-c1cc(Cl)ccc1C(C)=O` [Example 164, (S)-4-(2-(4-(2-acetyl-5-chlorophenyl)-5-methoxy-2-oxopyridin-1(2H)-yl)-4-cyclobutoxybutanamido)benzoic acid] the same measures were 30 nM and 6.4 µM.
As for `CCC(=O)c1ccc(Cl)cc1-c1cc(=O)n(C(CC2CCCCO2)C(=O)Nc2ccc(C(=O)O)cc2)cc1OC` (stereo not shown) [Example 166], the IC50 in data set [1] was found to be 42 nM. Further, the “CT2, concentration doubling APTT” value with human blood came to 7.2 µM.
